Test system: MV-4-11 cells
Experiment: Gene expression microarray analysis (Affymetrix PrimeView) and GSEA
Format: cell-based, human
Set-up: RFU PODN (11730768_x_at) / Fold change /veh PODN (11730768_x_at) / RFU LINC00158 (11744669_a_at) / Fold change /veh LINC00158 (11744669_a_at) / RFU DUSP10 (11751237_a_at) / Fold change /veh DUSP10 (11751237_a_at) / RFU ID3 (11757404_x_at) / Fold change /veh ID3 (11757404_x_at) / RFU PLEKHG5 (11737974_s_at) / Fold change /veh PLEKHG5 (11737974_s_at) / RFU LRRC4B (11730491_at) / Fold change /veh LRRC4B (11730491_at) / RFU GIMAP4 (11747438_a_at) / Fold change /veh GIMAP4 (11747438_a_at) / RFU KRT8 (11758183_x_at) / Fold change /veh KRT8 (11758183_x_at) / RFU CNN1 (11734310_a_at) / Fold change /veh CNN1 (11734310_a_at) / RFU VPS37D (11726825_at) / Fold change /veh VPS37D (11726825_at) / RFU C10orf10 (11716522_x_at) / Fold change /veh C10orf10 (11716522_x_at) / RFU KIR2DL2 /// KIR2DL4 /// KIR2DL5A /// KIR2DL5B /// KIR2DS1 /// KIR2DS2 /// KIR2DS3 /// KIR2DS4 /// KIR3DL3 /// KIR3DL3 /// KIR3DS1 (11738374_at) / Fold change /veh KIR2DL2 /// KIR2DL4 /// KIR2DL5A /// KIR2DL5B /// KIR2DS1 /// KIR2DS2 /// KIR2DS3 /// KIR2DS4 /// KIR3DL3 /// KIR3DL3 /// KIR3DS1 (11738374_at) / RFU C1QL1 (11718748_at) / Fold change /veh C1QL1 (11718748_at) / RFU TMPRSS4 (11747572_a_at) / Fold change /veh TMPRSS4 (11747572_a_at) / RFU HAMP (11756126_x_at) / Fold change /veh HAMP (11756126_x_at) / RFU RNFT2 (11725882_a_at) / Fold change /veh RNFT2 (11725882_a_at) / RFU NR4A2 (11747474_a_at) / Fold change /veh NR4A2 (11747474_a_at) / RFU ABCC12 (11746883_a_at) / Fold change /veh ABCC12 (11746883_a_at) / RFU TMEM136 (11760407_x_at) / Fold change /veh TMEM136 (11760407_x_at) / RFU CLDN22 /// WWC2 (11732394_at) / Fold change /veh CLDN22 /// WWC2 (11732394_at) / RFU HLA-DPB1 (11760878_x_at) / Fold change /veh HLA-DPB1 (11760878_x_at) / RFU SPINT1 (11716480_a_at) / Fold change /veh SPINT1 (11716480_a_at) / RFU GAP43 (11754022_s_at) / Fold change /veh GAP43 (11754022_s_at) / RFU A4GNT (11735810_at) / Fold change /veh A4GNT (11735810_at) / RFU PRB3 (11715151_x_at) / Fold change /veh PRB3 (11715151_x_at) / RFU TUBB4B (11761932_at) / Fold change /veh TUBB4B (11761932_at) / RFU CAPN14 (11732068_a_at) / Fold change /veh CAPN14 (11732068_a_at) / RFU TMCC2 (11721928_a_at) / Fold change /veh TMCC2 (11721928_a_at) / RFU IRGQ (11745062_a_at) / Fold change /veh IRGQ (11745062_a_at) / RFU FAM174B (11720279_a_at) / Fold change /veh FAM174B (11720279_a_at) / RFU TMPRSS4 (11748680_a_at) / Fold change /veh TMPRSS4 (11748680_a_at) / RFU FAM212B (11763350_a_at) / Fold change /veh FAM212B (11763350_a_at) / RFU PLEKHG5 (11743358_a_at) / Fold change /veh PLEKHG5 (11743358_a_at) / RFU ZSCAN30 (11745921_a_at) / Fold change /veh ZSCAN30 (11745921_a_at) / RFU CMKLR1 (11741424_a_at) / Fold change /veh CMKLR1 (11741424_a_at) / RFU LOC101060620 /// MAPK8IP1 (11723275_at) / Fold change /veh LOC101060620 /// MAPK8IP1 (11723275_at) / RFU SPTSSB (11747773_x_at) / Fold change /veh SPTSSB (11747773_x_at) / RFU PRSS12 (11739890_at) / Fold change /veh PRSS12 (11739890_at) / RFU BIN1 (11741810_x_at) / Fold change /veh BIN1 (11741810_x_at) / RFU WNT11 (11732464_a_at) / Fold change /veh WNT11 (11732464_a_at) / RFU C10orf10 (11716521_a_at) / Fold change /veh C10orf10 (11716521_a_at) / RFU C5orf56 (11738089_at) / Fold change /veh C5orf56 (11738089_at) / RFU CYB561 (11721691_x_at) / Fold change /veh CYB561 (11721691_x_at) / RFU ANKRD19P (11752326_a_at) / Fold change /veh ANKRD19P (11752326_a_at) / RFU OR2T12 /// OR2T33 /// OR2T8 (11738714_s_at) / Fold change /veh OR2T12 /// OR2T33 /// OR2T8 (11738714_s_at) / RFU VCAN (11748164_a_at) / Fold change /veh VCAN (11748164_a_at) / RFU JSRP1 (11732532_at) / Fold change /veh JSRP1 (11732532_at) / RFU KRTAP10-11 (11738290_x_at) / Fold change /veh KRTAP10-11 (11738290_x_at) / RFU MYO3A (11730013_a_at) / Fold change /veh MYO3A (11730013_a_at) / RFU EBF3 (11725865_a_at) / Fold change /veh EBF3 (11725865_a_at) / RFU CAMK2N1 (11719241_x_at) / Fold change /veh CAMK2N1 (11719241_x_at) / RFU C5orf56 (11738088_a_at) / Fold change /veh C5orf56 (11738088_a_at) / RFU OLFML3 (11715873_a_at) / Fold change /veh OLFML3 (11715873_a_at) / RFU LOC100653217 /// NTM (11731650_a_at) / Fold change /veh LOC100653217 /// NTM (11731650_a_at) / RFU MAPK11 (11762145_a_at) / Fold change /veh MAPK11 (11762145_a_at) / RFU FIZ1 (11724087_x_at) / Fold change /veh FIZ1 (11724087_x_at) / RFU OASL (11726364_x_at) / Fold change /veh OASL (11726364_x_at) / RFU SOX15 (11748057_x_at) / Fold change /veh SOX15 (11748057_x_at) / RFU CD79A (11719716_a_at) / Fold change /veh CD79A (11719716_a_at) / RFU HIST1H1D (11736915_at) / Fold change /veh HIST1H1D (11736915_at) / RFU CASKIN2 (11723855_a_at) / Fold change /veh CASKIN2 (11723855_a_at) / RFU LOC730098 (11760151_x_at) / Fold change /veh LOC730098 (11760151_x_at) / RFU OR4N2 (11742367_at) / Fold change /veh OR4N2 (11742367_at) / RFU PRRT2 (11749266_a_at) / Fold change /veh PRRT2 (11749266_a_at) / RFU SNX32 (11753110_a_at) / Fold change /veh SNX32 (11753110_a_at) / RFU CDHR5 (11726645_a_at) / Fold change /veh CDHR5 (11726645_a_at) / RFU RCAN1 (11760418_a_at) / Fold change /veh RCAN1 (11760418_a_at) / RFU FAM167A (11723789_a_at) / Fold change /veh FAM167A (11723789_a_at) / RFU FAM26E (11764081_at) / Fold change /veh FAM26E (11764081_at) / RFU ISYNA1 (11749810_s_at) / Fold change /veh ISYNA1 (11749810_s_at) / RFU ACY1 (11761880_at) / Fold change /veh ACY1 (11761880_at) / RFU 11764098_at / Fold change /veh 11764098_at / RFU SAMD14 (11745864_x_at) / Fold change /veh SAMD14 (11745864_x_at) / RFU NPB (11741838_a_at) / Fold change /veh NPB (11741838_a_at) / RFU TMPRSS6 (11731388_a_at) / Fold change /veh TMPRSS6 (11731388_a_at) / RFU KRTAP10-2 (11738614_at) / Fold change /veh KRTAP10-2 (11738614_at) / RFU ARHGAP8 /// PRR5-ARHGAP8 (11727945_x_at) / Fold change /veh ARHGAP8 /// PRR5-ARHGAP8 (11727945_x_at) / RFU KRTAP5-7 /// NADSYN1 (11734609_at) / Fold change /veh KRTAP5-7 /// NADSYN1 (11734609_at) / RFU RASL12 (11751679_a_at) / Fold change /veh RASL12 (11751679_a_at) / RFU CDKN2B (11736163_a_at) / Fold change /veh CDKN2B (11736163_a_at) / RFU PRF1 (11729649_at) / Fold change /veh PRF1 (11729649_at) / RFU, ZNF638 /// ZNF638-IT1 / Fold change vs veh, ZNF638 /// ZNF638-IT1 / RFU, PANK3 / Fold change vs veh, PANK3 / RFU, SH3YL1 / Fold change vs veh, SH3YL1 / RFU, ZEB2 / Fold change vs veh, ZEB2 / RFU, NRIP1 / Fold change vs veh, NRIP1 / RFU, PTTG1IP / Fold change vs veh, PTTG1IP / RFU, CAPN2 / Fold change vs veh, CAPN2 / RFU, MED14 / Fold change vs veh, MED14 / RFU, SNORA58 / Fold change vs veh, SNORA58 / RFU, C1orf63 / Fold change vs veh, C1orf63 / RFU, LRRFIP1 / Fold change vs veh, LRRFIP1 / RFU, NDUFAF7 / Fold change vs veh, NDUFAF7 / RFU, SLC12A2 / Fold change vs veh, SLC12A2 / RFU, IBTK / Fold change vs veh, IBTK / RFU, ESF1 / Fold change vs veh, ESF1 / Fold change vs veh, TMEM50B / RFU, TAOK1 / Fold change vs veh, TAOK1 / RFU, ACBD3 / Fold change vs veh, ACBD3 / RFU, TMA16 / Fold change vs veh, TMA16 / RFU, RWDD3 / Fold change vs veh, RWDD3 / RFU, BCAT1 / Fold change vs veh, BCAT1 / RFU, EDEM3 / Fold change vs veh, EDEM3 / RFU, TMEM33 / Fold change vs veh, TMEM33 / RFU, WDR75 / Fold change vs veh, WDR75 / RFU, AHCTF1 / Fold change vs veh, AHCTF1 / RFU, TFRC / Fold change vs veh, TFRC / RFU, ZDHHC17 / Fold change vs veh, ZDHHC17 / RFU, NOM1 / Fold change vs veh, NOM1 / RFU, ARL8B / Fold change vs veh, ARL8B / RFU, ZBTB11 / Fold change vs veh, ZBTB11 / RFU, TAMM41 / Fold change vs veh, TAMM41 / RFU, KIAA1704 /// LOC100996395 / Fold change vs veh, KIAA1704 /// LOC100996395 / RFU, ING1 / Fold change vs veh, ING1 / RFU, TRMT61B / Fold change vs veh, TRMT61B / RFU, FUBP3 / Fold change vs veh, FUBP3 / RFU, TP53 / Fold change vs veh, TP53 / RFU, TNKS2 / Fold change vs veh, TNKS2 / RFU, ZFP14 / Fold change vs veh, ZFP14 / RFU, ACTR2 / Fold change vs veh, ACTR2 / RFU, PPP3R1 / Fold change vs veh, PPP3R1 / RFU, PIK3R1 / Fold change vs veh, PIK3R1 / RFU, HNRNPA1 / Fold change vs veh, HNRNPA1 / RFU, RNF170 / Fold change vs veh, RNF170 / RFU, ZNF28 / Fold change vs veh, ZNF28 / RFU, RNGTT / Fold change vs veh, RNGTT / RFU, OGT / Fold change vs veh, OGT / RFU, BRD1 / Fold change vs veh, BRD1 / RFU, MARS / Fold change vs veh, MARS / RFU, ZNF655 / Fold change vs veh, ZNF655 / RFU, FAHD1 / Fold change vs veh, FAHD1 / RFU, BDP1 / Fold change vs veh, BDP1 / RFU, LRRCC1 / Fold change vs veh, LRRCC1 / RFU, ARID1A / Fold change vs veh, ARID1A / RFU, ZNF146 / Fold change vs veh, ZNF146 / RFU, ZNF330 / Fold change vs veh, ZNF330 / RFU, GPN3 / Fold change vs veh, GPN3 / RFU, C9orf123 / Fold change vs veh, C9orf123 / RFU, N4BP2L2 / Fold change vs veh, N4BP2L2 / RFU, ARFIP1 / Fold change vs veh, ARFIP1 / RFU, FAM179B / Fold change vs veh, FAM179B / RFU, BCL10 / Fold change vs veh, BCL10 / RFU, UHRF1BP1L / Fold change vs veh, UHRF1BP1L / RFU, BET1 / Fold change vs veh, BET1 / RFU, CNOT2 / Fold change vs veh, CNOT2 / RFU, ZNF268 / Fold change vs veh, ZNF268 / Fold change vs veh, ZNF507 / RFU, DGCR2 / Fold change vs veh, DGCR2 / RFU, WDSUB1 / Fold change vs veh, WDSUB1 / Fold change vs veh, HSP90B1 /// MIR3652 / RFU, ADSS / Fold change vs veh, ADSS / RFU, GK / Fold change vs veh, GK / RFU, ZNF148 / Fold change vs veh, ZNF148 / RFU, TAF9 / Fold change vs veh, TAF9 / RFU, SLC1A5 / Fold change vs veh, SLC1A5 / RFU, SLMO2 / Fold change vs veh, SLMO2 / RFU, ABCC4 / Fold change vs veh, ABCC4 / RFU, LOC101060439 /// RAP1B / Fold change vs veh, LOC101060439 /// RAP1B / RFU, RFX7 / Fold change vs veh, RFX7 / RFU, GTPBP10 / Fold change vs veh, GTPBP10 / RFU, CNEP1R1 / Fold change vs veh, CNEP1R1 / RFU, BIVM-ERCC5 /// ERCC5 / Fold change vs veh, BIVM-ERCC5 /// ERCC5 / RFU, ILF3 / Fold change vs veh, ILF3 / RFU 11762660_at / Fold change /veh 11762660_at / RFU VCAN (11757783_s_at) / Fold change /veh VCAN (11757783_s_at) / RFU DDX43 (11728927_at) / Fold change /veh DDX43 (11728927_at) / RFU KRT8 (11758188_x_at) / Fold change /veh KRT8 (11758188_x_at) / RFU NKD1 (11759106_at) / Fold change /veh NKD1 (11759106_at) / RFU SRD5A1 (11742802_a_at) / Fold change /veh SRD5A1 (11742802_a_at) / RFU TPSAB1 /// TPSB2 (11721975_s_at) / Fold change /veh TPSAB1 /// TPSB2 (11721975_s_at) / RFU GSTM3 (11746129_a_at) / Fold change /veh GSTM3 (11746129_a_at) / RFU IL23R (11737362_x_at) / Fold change /veh IL23R (11737362_x_at) / RFU TMEM51 (11727254_a_at) / Fold change /veh TMEM51 (11727254_a_at) / RFU PIWIL2 (11732686_x_at) / Fold change /veh PIWIL2 (11732686_x_at) / RFU ORM1 (11744905_x_at) / Fold change /veh ORM1 (11744905_x_at) / RFU CCDC152 (11743942_at) / Fold change /veh CCDC152 (11743942_at) / RFU ECM1 (11717891_a_at) / Fold change /veh ECM1 (11717891_a_at) / RFU IL23R (11748794_a_at) / Fold change /veh IL23R (11748794_a_at) / RFU TNFAIP8L3 (11732012_x_at) / Fold change /veh TNFAIP8L3 (11732012_x_at) / RFU MBOAT4 (11741988_at) / Fold change /veh MBOAT4 (11741988_at) / RFU 11764193_at / Fold change /veh 11764193_at / RFU TMEM53 (11763286_at) / Fold change /veh TMEM53 (11763286_at) / RFU MAGEB2 (11727129_at) / Fold change /veh MAGEB2 (11727129_at) / RFU TMEM200A (11744735_a_at) / Fold change /veh TMEM200A (11744735_a_at) / RFU CCDC152 (11751479_a_at) / Fold change /veh CCDC152 (11751479_a_at) / RFU FAM211A (11726209_a_at) / Fold change /veh FAM211A (11726209_a_at) / RFU RGS16 (11746705_a_at) / Fold change /veh RGS16 (11746705_a_at) / RFU VCAN (11755009_s_at) / Fold change /veh VCAN (11755009_s_at) / RFU RHOB (11743442_s_at) / Fold change /veh RHOB (11743442_s_at) / RFU RGS16 (11720943_a_at) / Fold change /veh RGS16 (11720943_a_at) / RFU RGS16 (11720944_at) / Fold change /veh RGS16 (11720944_at) / RFU, VPS4B / Fold change vs veh, VPS4B / RFU, CREB1 / Fold change vs veh, CREB1 / RFU, DNAJC13 / Fold change vs veh, DNAJC13 / RFU, GNAQ / Fold change vs veh, GNAQ / RFU, CDK5R1 / Fold change vs veh, CDK5R1 / RFU, ZRANB3 / Fold change vs veh, ZRANB3 / RFU, CUL4A / Fold change vs veh, CUL4A / RFU, CCNY / Fold change vs veh, CCNY / RFU, UFL1 / Fold change vs veh, UFL1 / RFU, COG3 / Fold change vs veh, COG3 / RFU, DIAPH2 / Fold change vs veh, DIAPH2 / RFU, SKA2 / Fold change vs veh, SKA2 / RFU, AFF3 / Fold change vs veh, AFF3 / RFU, LMF1 / Fold change vs veh, LMF1 / RFU, IPO11 / Fold change vs veh, IPO11 / RFU, DFFB / Fold change vs veh, DFFB / RFU, FOXP1 / Fold change vs veh, FOXP1 / RFU, CARD8 / Fold change vs veh, CARD8 / RFU, STRN3 / Fold change vs veh, STRN3 / RFU, ADK / Fold change vs veh, ADK / RFU, RASSF2 / Fold change vs veh, RASSF2 / RFU, WIPF1 / Fold change vs veh, WIPF1 / RFU, LARP1B / Fold change vs veh, LARP1B / RFU, RASA1 / Fold change vs veh, RASA1 / RFU, RB1 / Fold change vs veh, RB1 / RFU, PPFIA1 / Fold change vs veh, PPFIA1 / RFU, MAT2A / Fold change vs veh, MAT2A / RFU, CCT5 / Fold change vs veh, CCT5 / RFU, WDR92 / Fold change vs veh, WDR92 / RFU, CUX1 / Fold change vs veh, CUX1 / RFU, TTC7A / Fold change vs veh, TTC7A / RFU, TMEM135 / Fold change vs veh, TMEM135 / RFU, DEPTOR / Fold change vs veh, DEPTOR / RFU, CPM / Fold change vs veh, CPM / RFU, DNAJB6 / Fold change vs veh, DNAJB6 / RFU, CACNA2D3 / Fold change vs veh, CACNA2D3 / RFU, DTX4 / Fold change vs veh, DTX4 / RFU, TFCP2 / Fold change vs veh, TFCP2 / RFU, GMCL1 /// GMCL1P1 / Fold change vs veh, GMCL1 /// GMCL1P1 / RFU, AEBP2 / Fold change vs veh, AEBP2 / RFU, SNHG1 /// SNORD22 /// SNORD25 /// SNORD26 /// SNORD27 /// SNORD28 /// SNORD29 /// SNORD31 / Fold change vs veh, SNHG1 /// SNORD22 /// SNORD25 /// SNORD26 /// SNORD27 /// SNORD28 /// SNORD29 /// SNORD31 / Fold change (Aza/veh), C12orf56 (ProbeSet 11735607_a_at) / Fold change (ACY-1035/veh), C12orf56 (ProbeSet 11735607_a_at) / Fold change (Aza/veh), FGFR1OP (ProbeSet 11751329_s_at) / Fold change (ACY-1035/veh), FGFR1OP (ProbeSet 11751329_s_at) / Fold change (Aza/veh), VPS36 (ProbeSet 11739960_a_at) / Fold change (ACY-1035/veh), VPS36 (ProbeSet 11739960_a_at) / RFU SYPL1 (11715823_x_at) / Fold change /veh SYPL1 (11715823_x_at) / RFU IGFBP7 (11715501_s_at) / Fold change /veh IGFBP7 (11715501_s_at) / RFU REEP3 (11722064_at) / Fold change /veh REEP3 (11722064_at) / RFU IGLL1 (11728026_x_at) / Fold change /veh IGLL1 (11728026_x_at): dose or concentration left out as unconfirmed
Conditions: ProbeSet 11720566_at; LIST D

In the case of `Nc1ccc(-c2cccs2)cc1NC(=O)c1ccc2c(c1)cc(C1CC1)n2CCN1CCOCC1` [ACY-1035], the “Fold change vs veh, BCAT1” value is reported as 0.85.
